Test results taken from ChEMBL document CHEMBL5321218, “Bifunctional degraders of cyclin dependent kinase 9 (CDK9): Probing the relationship between linker length, properties, and selective protein degradation” (Eur J Med Chem, 2023).
pEC50, pIC50: −log10 of the molar value. The source made the active and inactive calls. No cut-off for these calls is given here.

Legend:
MOLM-13 [1] = assay: Anticancer activity against human MOLM-13 cells assessed as cell growth inhibition measured after 48 hrs by MTS assay; type: functional, cell-based; details: MOLM-13, 48 h
[2] = target: T1, Protein cereblon/Cyclin-dependent kinase 9 (Homo sapiens, UniProt P50750+Q96SW2); assay: Protac activity at CRBN/CDK9 in human MV4-11 cells assessed as CDK9 degradation at 1 uM measured after 6 hrs by Western blot analysis; type: cell-based
Target sequence in this assay (P50750 whole entry, looked up): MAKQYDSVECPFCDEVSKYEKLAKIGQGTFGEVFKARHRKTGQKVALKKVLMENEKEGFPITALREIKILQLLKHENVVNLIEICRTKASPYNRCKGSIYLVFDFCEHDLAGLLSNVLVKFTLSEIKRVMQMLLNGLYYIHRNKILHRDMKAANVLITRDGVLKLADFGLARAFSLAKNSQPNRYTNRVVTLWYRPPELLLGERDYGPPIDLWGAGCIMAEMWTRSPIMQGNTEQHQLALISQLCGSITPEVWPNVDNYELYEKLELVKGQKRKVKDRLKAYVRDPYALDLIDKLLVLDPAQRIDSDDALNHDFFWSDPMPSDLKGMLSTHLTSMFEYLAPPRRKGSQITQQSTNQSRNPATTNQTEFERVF
Target sequence in this assay (Q96SW2 whole entry, looked up): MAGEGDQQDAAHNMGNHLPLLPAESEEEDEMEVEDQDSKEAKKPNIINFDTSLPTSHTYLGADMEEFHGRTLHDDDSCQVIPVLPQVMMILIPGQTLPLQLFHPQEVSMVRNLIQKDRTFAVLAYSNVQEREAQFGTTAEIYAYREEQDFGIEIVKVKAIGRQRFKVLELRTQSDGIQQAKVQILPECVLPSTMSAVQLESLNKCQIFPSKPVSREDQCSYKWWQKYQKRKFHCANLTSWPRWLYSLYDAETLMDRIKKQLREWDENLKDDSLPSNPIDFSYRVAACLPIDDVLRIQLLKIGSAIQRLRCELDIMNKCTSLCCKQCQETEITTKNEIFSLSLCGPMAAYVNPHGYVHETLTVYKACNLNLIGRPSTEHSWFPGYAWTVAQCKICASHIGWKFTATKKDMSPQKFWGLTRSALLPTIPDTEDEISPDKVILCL

[3] = target: T1, Protein cereblon/Cyclin-dependent kinase 9; assay: Protac activity at CRBN/CDK9 in human MV4-11 cells assessed as reduction in MCL-1 level at 1 uM measured after 6 hrs by Western blot analysis; type: cell-based
Target sequence in this assay (P50750 whole entry, looked up): as the sequence (P50750 whole entry, looked up) above
Target sequence in this assay (Q96SW2 whole entry, looked up): as the sequence (Q96SW2 whole entry, looked up) above

[4] = target: T1, Protein cereblon/Cyclin-dependent kinase 9; assay: Protac activity at CRBN/CDK9 in human MV4-11 cells assessed as CDK9 degradation at 5 uM measured after 6 hrs by Western blot analysis; type: cell-based
Target sequence in this assay (P50750 whole entry, looked up): as the sequence (P50750 whole entry, looked up) above
Target sequence in this assay (Q96SW2 whole entry, looked up): as the sequence (Q96SW2 whole entry, looked up) above

[5] = target: T1, Protein cereblon/Cyclin-dependent kinase 9; assay: Protac activity at CRBN/CDK9 in human MV4-11 cells assessed as CDK9 degradation at 0.01 to 5 uM measured after 6 hrs by Western blot analysis; type: cell-based; details: dose 0.01-5 µM
Target sequence in this assay (P50750 whole entry, looked up): as the sequence (P50750 whole entry, looked up) above
Target sequence in this assay (Q96SW2 whole entry, looked up): as the sequence (Q96SW2 whole entry, looked up) above

MV4-11 = assay: Anticancer activity against human MV4-11 cells assessed as cell growth inhibition for 6 hrs followed by compound washout measured after 24 hrs by Annexin V/Propidium iodide staining based flow cytometric analysis; type: functional
MOLM-13 [6] = assay: Effect on aiolos expression in human MOLM-13 cells upto 5 uM measured after 6 hrs by Western blot analysis; type: functional, cell-based
[7] = target: T1, Protein cereblon/Cyclin-dependent kinase 9; assay: Protac activity at CRBN/CDK9 isoform 42 in human MOLM-13 cells assessed assessed as protein degradation measured after 6 hrs by Western blot analysis; type: cell-based
Target sequence in this assay (P50750 whole entry): as the sequence (P50750 whole entry, looked up) above
Target sequence in this assay (Q96SW2 whole entry): as the sequence (Q96SW2 whole entry, looked up) above

MOLM-13 [8] = assay: Effect on ikaros expression in human MOLM-13 cells upto 5 uM measured after 6 hrs by Western blot analysis; type: functional, cell-based
B-lymphocyte = assay: Induction of CDK2 degradation in B-lymphocyte (unknown origin); type: cell-based
[9] = target: Cyclin-dependent kinase 9 (Homo sapiens) (UniProt P50750); assay: Induction of CDK9 degradation in human MOLM-13 cells assessed as fold change measured after 6 hrs by proteomics analysis; type: cell-based
Chain of Cyclin-dependent kinase 9 (Homo sapiens) (P50750 whole entry): as the sequence (P50750 whole entry, looked up) above

[10] = target: T1, Protein cereblon/Cyclin-dependent kinase 9; assay: Protac activity at CRBN/CDK9 in human MV4-11 cells assessed as protein degradation at 1 uM treated for 6 hrs followed by compound washout measured after 24 hrs by Western blot analysis; type: cell-based
Target sequence in this assay (P50750 whole entry, looked up): as above
Target sequence in this assay (Q96SW2 whole entry, looked up): as the sequence (Q96SW2 whole entry, looked up) above

[11] = target: T1, Protein cereblon/Cyclin-dependent kinase 9; assay: Protac activity at CRBN/CDK9 isoform 55 in human MOLM-13 cells assessed assessed as protein degradation measured after 6 hrs by Western blot analysis relative to control; type: cell-based
Target sequence in this assay (P50750 whole entry, looked up): as the sequence (P50750 whole entry, looked up) above
Target sequence in this assay (Q96SW2 whole entry, looked up): as the sequence (Q96SW2 whole entry, looked up) above

[12] = target: T1, Protein cereblon/Cyclin-dependent kinase 9; assay: Protac activity at CRBN/CDK9 in human MV4-11 cells assessed as protein degradation at 1 uM measured after 6 hrs in presence of bortezomib by Western blot analysis; type: cell-based
[13] = target: T1, Protein cereblon/Cyclin-dependent kinase 9; assay: Protac activity at CRBN/CDK9 in human MV4-11 cells assessed as protein degradation at 1 uM measured after 6 hrs in presence of […] by Western blot analysis; type: cell-based
[14] = target: T1, Protein cereblon/Cyclin-dependent kinase 9; assay: Protac activity at CRBN/CDK9 in human MV4-11 cells assessed as protein degradation at 1 uM measured after 6 hrs in presence of carfilzomib by Western blot analysis; type: cell-based
[15] = target: T1, Protein cereblon/Cyclin-dependent kinase 9; assay: Protac activity at CRBN/CDK9 in human MV4-11 cells assessed as reduction in MCL-1 level upto 5 uM measured after 6 hrs by Western blot analysis; type: cell-based
[16] = target: T1, Protein cereblon/Cyclin-dependent kinase 9; assay: Protac activity at CRBN/CDK9 isoform 55 in human MOLM-13 cells assessed assessed as protein degradation measured after 6 hrs by Western blot analysis; type: cell-based
Target sequence in this assay (P50750 whole entry): as the sequence (P50750 whole entry, looked up) above
Target sequence in this assay (Q96SW2 whole entry): as the sequence (Q96SW2 whole entry, looked up) above

T-lymphocyte = assay: Induction of CDK2 degradation in T-lymphocyte (unknown origin); type: cell-based
[17] = target: T1, Protein cereblon/Cyclin-dependent kinase 9; assay: Protac activity at CRBN/CDK9 in human MV4-11 cells assessed as protein degradation at 1 uM treated for 6 hrs followed by compound washout measured after 48 hrs by Western blot analysis; type: cell-based
[18] = target: T1, Protein cereblon/Cyclin-dependent kinase 9; assay: Protac activity at CRBN/CDK9 in human MV4-11 cells assessed as protein degradation at 1 uM measured after 6 hrs in presence of pomalidomide by Western blot analysis; type: cell-based
[19] = target: T1, Protein cereblon/Cyclin-dependent kinase 9; assay: Protac activity at CRBN/CDK9 isoform 42 in human MOLM-13 cells assessed assessed as protein degradation measured after 6 hrs by Western blot analysis relative to control; type: cell-based
MOLM-13 [20] = assay: Effect on ikaros expression in human MOLM-13 cells at 0.1 uM measured after 6 hrs by Western blot analysis; type: functional, cell-based
[21] = target: T1, Protein cereblon/Cyclin-dependent kinase 9; assay: Protac activity at CRBN/CDK9 in human MV4-11 cells assessed as reduction in c-Myc level upto 5 uM measured after 6 hrs by Western blot analysis; type: cell-based

Structure (SMILES): O=C(COc1cccc2c1C(=O)N(C1CCC(=O)NC1=O)C2=O)NCCCCCC(=O)N1CCC(NC(=O)c2n[nH]cc2NC(=O)c2c(Cl)cccc2Cl)CC1 (stereo not given)
- pIC50 (MOLM-13 [1]): 5.57

Structure (SMILES): O=C1CCC(N2C(=O)c3cccc(OCC(=O)N4CCC(NC(=O)c5n[nH]cc5NC(=O)c5c(Cl)cccc5Cl)CC4)c3C2=O)C(=O)N1 (stereo not given)
- pIC50 (MOLM-13 [1]): 5.18
- Activity [2]: inactive

Structure (SMILES): O=C(COc1cccc2c1C(=O)N(C1CCC(=O)NC1=O)C2=O)NCCCCCCCCCCCC(=O)N1CCC(NC(=O)c2n[nH]cc2NC(=O)c2c(Cl)cccc2Cl)CC1 (stereo not given)
- Activity [3]: Active
- pIC50 (MOLM-13 [1]): 6.92
- Activity [2]: Active

Structure (SMILES): O=C(COc1cccc2c1C(=O)N(C1CCC(=O)NC1=O)C2=O)NCCCCC(=O)N1CCC(NC(=O)c2n[nH]cc2NC(=O)c2c(Cl)cccc2Cl)CC1 (stereo not given)
- pIC50 (MOLM-13 [1]): 4.36

Structure (SMILES): O=C(CCCCCCCCNC(=O)CNc1cccc2c1C(=O)N(C1CCC(=O)NC1=O)C2=O)NCCCCCCCCC(=O)N1CCC(NC(=O)c2n[nH]cc2NC(=O)c2c(Cl)cccc2Cl)CC1 (stereo not given)
- pIC50 (MOLM-13 [1]): 5.85

Structure (SMILES): O=C1CCC(N2C(=O)c3cccc(NCC(=O)N4CCC(NC(=O)c5n[nH]cc5NC(=O)c5c(Cl)cccc5Cl)CC4)c3C2=O)C(=O)N1 (stereo not given)
- Activity [3]: inactive
- pIC50 (MOLM-13 [1]): 3.11
- Activity [2]: inactive

Structure (SMILES): O=C(CCCCCCCCCNC(=O)CNc1cccc2c1C(=O)N(C1CCC(=O)NC1=O)C2=O)NCCCCCCCCCC(=O)N1CCC(NC(=O)c2n[nH]cc2NC(=O)c2c(Cl)cccc2Cl)CC1 (stereo not given)
- pIC50 (MOLM-13 [1]): 5.03

Structure (SMILES): O=C(CCCCCNC(=O)CNc1cccc2c1C(=O)N(C1CCC(=O)NC1=O)C2=O)NCCCCCC(=O)N1CCC(NC(=O)c2n[nH]cc2NC(=O)c2c(Cl)cccc2Cl)CC1 (stereo not given)
- pIC50 (MOLM-13 [1]): 4.88

Structure (SMILES): O=C(CCNC(=O)CNc1cccc2c1C(=O)N(C1CCC(=O)NC1=O)C2=O)NCCC(=O)NCCC(=O)N1CCC(NC(=O)c2n[nH]cc2NC(=O)c2c(Cl)cccc2Cl)CC1 (stereo not given)
- Activity [4]: inactive

Structure (SMILES): O=C(CCCCNC(=O)COc1cccc2c1C(=O)N(C1CCC(=O)NC1=O)C2=O)NCCCCC(=O)N1CCC(NC(=O)c2n[nH]cc2NC(=O)c2c(Cl)cccc2Cl)CC1 (stereo not given)
- pIC50 (MOLM-13 [1]): 4.32
- Activity [5]: inactive

Structure (SMILES): O=C(CCCCNC(=O)CNc1cccc2c1C(=O)N(C1CCC(=O)NC1=O)C2=O)NCCCCC(=O)N1CCC(NC(=O)c2n[nH]cc2NC(=O)c2c(Cl)cccc2Cl)CC1 (stereo not given)
- pIC50 (MOLM-13 [1]): 4.53
- Activity [5]: inactive

Structure (SMILES): O=C(CCCCCCCCCNC(=O)COc1cccc2c1C(=O)N(C1CCC(=O)NC1=O)C2=O)NCCCCCCCCCC(=O)N1CCC(NC(=O)c2n[nH]cc2NC(=O)c2c(Cl)cccc2Cl)CC1 (stereo not given)
- pIC50 (MOLM-13 [1]): 5.65

Structure (SMILES): O=C(CCCCCCCCNC(=O)COc1cccc2c1C(=O)N(C1CCC(=O)NC1=O)C2=O)NCCCCCCCCC(=O)N1CCC(NC(=O)c2n[nH]cc2NC(=O)c2c(Cl)cccc2Cl)CC1 (stereo not given)
- pIC50 (MOLM-13 [1]): 6.09

Structure (SMILES): O=C(CCCCCCCCCCNC(=O)COc1cccc2c1C(=O)N(C1CCC(=O)NC1=O)C2=O)NCCCCCCCCCCC(=O)N1CCC(NC(=O)c2n[nH]cc2NC(=O)c2c(Cl)cccc2Cl)CC1 (stereo not given)
- pIC50 (MOLM-13 [1]): 4.65

Structure (SMILES): O=C(COc1cccc2c1C(=O)N(C1CCC(=O)NC1=O)C2=O)NCCC(=O)Nc1cccc(C(=O)NCCC(=O)N2CCC(NC(=O)c3n[nH]cc3NC(=O)c3c(Cl)cccc3Cl)CC2)c1 (stereo not given)
- Activity [4]: inactive

Structure (SMILES): O=C(COc1cccc2c1C(=O)N(C1CCC(=O)NC1=O)C2=O)NCCOCCOCCOCC(=O)N1CCC(NC(=O)c2n[nH]cc2NC(=O)c2c(Cl)cccc2Cl)CC1 (stereo not given)
- pIC50 (MOLM-13 [1]): 4.04

Structure (SMILES): O=C(COc1cccc2c1C(=O)N(C1CCC(=O)NC1=O)C2=O)NCCCCCCCC(=O)N1CCC(NC(=O)c2n[nH]cc2NC(=O)c2c(Cl)cccc2Cl)CC1 (stereo not given)
- Activity [3]: Active
- pIC50 (MOLM-13 [1]): 6.68
- Activity [2]: Active

Structure (SMILES): O=C(CCCCCCCNC(=O)CNc1cccc2c1C(=O)N(C1CCC(=O)NC1=O)C2=O)NCCCCCCCC(=O)N1CCC(NC(=O)c2n[nH]cc2NC(=O)c2c(Cl)cccc2Cl)CC1 (stereo not given)
- pIC50 (MOLM-13 [1]): 5.52

Structure (SMILES): O=C(NC1CCNCC1)c1n[nH]cc1NC(=O)c1c(Cl)cccc1Cl
- pEC50 (MV4-11): 5.96

Structure (SMILES): O=C(COc1cccc2c1C(=O)N(C1CCC(=O)NC1=O)C2=O)NCCCCCCCCCCC(=O)N1CCC(NC(=O)c2n[nH]cc2NC(=O)c2c(Cl)cccc2Cl)CC1 (stereo not given)
- Activity [3]: Active
- Activity (MOLM-13 [6]): inactive
- DC50 [7]: 0.1 µM
- Activity (MOLM-13 [8]): inactive
- Activity (B-lymphocyte): Active
- pIC50 (MOLM-13 [1]): 7.40
- fold change (FC) [9]: > 2
- Activity [10]: Active
- Emax [11]: 91.6%
- Activity [2]: Active
- pEC50 (MV4-11): 6.40
- Activity [12]: inactive
- Activity [13]: inactive
- Activity [14]: inactive
- Activity [15]: Active
- DC50 [16]: 0.14 µM
- Activity (T-lymphocyte): Active
- Activity [17]: inactive
- Activity [18]: inactive
- Emax [19]: 93.1%

Structure (SMILES): O=C(CNc1cccc2c1C(=O)N(C1CCC(=O)NC1=O)C2=O)NCCCCCCCCCCC(=O)N1CCC(NC(=O)c2n[nH]cc2NC(=O)c2c(Cl)cccc2Cl)CC1 (stereo not given)
- DC50 [7]: 0.03 µM
- pIC50 (MOLM-13 [1]): 4.38
- Activity (MOLM-13 [20]): inactive
- Emax [11]: 91.6%
- Activity [2]: Active
- pEC50 (MV4-11): 6.70
- Activity [21]: Active
- DC50 [16]: 0.05 µM
- Emax [19]: 93.1%

Structure (SMILES): O=C(COc1cccc2c1C(=O)N(C1CCC(=O)NC1=O)C2=O)NCCC(=O)N1CCC(NC(=O)c2n[nH]cc2NC(=O)c2c(Cl)cccc2Cl)CC1 (stereo not given)
- pIC50 (MOLM-13 [1]): 4.40
- Activity [2]: inactive

Structure (SMILES): O=C(CCCCCNC(=O)COc1cccc2c1C(=O)N(C1CCC(=O)NC1=O)C2=O)NCCCCCC(=O)N1CCC(NC(=O)c2n[nH]cc2NC(=O)c2c(Cl)cccc2Cl)CC1 (stereo not given)
- pIC50 (MOLM-13 [1]): 4.93

Structure (SMILES): O=C(CCCCCCNC(=O)COc1cccc2c1C(=O)N(C1CCC(=O)NC1=O)C2=O)NCCCCCCC(=O)N1CCC(NC(=O)c2n[nH]cc2NC(=O)c2c(Cl)cccc2Cl)CC1 (stereo not given)
- pIC50 (MOLM-13 [1]): 5.20

Structure (SMILES): O=C(CCCCCCCNC(=O)COc1cccc2c1C(=O)N(C1CCC(=O)NC1=O)C2=O)NCCCCCCCC(=O)N1CCC(NC(=O)c2n[nH]cc2NC(=O)c2c(Cl)cccc2Cl)CC1 (stereo not given)
- pIC50 (MOLM-13 [1]): 5.62

Structure (SMILES): O=C(CCCCCCCCCCNC(=O)CNc1cccc2c1C(=O)N(C1CCC(=O)NC1=O)C2=O)NCCCCCCCCCCC(=O)N1CCC(NC(=O)c2n[nH]cc2NC(=O)c2c(Cl)cccc2Cl)CC1 (stereo not given)
- pIC50 (MOLM-13 [1]): 4.55

Structure (SMILES): O=C(CCCCCCNC(=O)CNc1cccc2c1C(=O)N(C1CCC(=O)NC1=O)C2=O)NCCCCCCC(=O)N1CCC(NC(=O)c2n[nH]cc2NC(=O)c2c(Cl)cccc2Cl)CC1 (stereo not given)
- pIC50 (MOLM-13 [1]): 5.16

Structure (SMILES): O=C(CCCCCCCCCCCNC(=O)COc1cccc2c1C(=O)N(C1CCC(=O)NC1=O)C2=O)NCCCCCCCCCCCC(=O)N1CCC(NC(=O)c2n[nH]cc2NC(=O)c2c(Cl)cccc2Cl)CC1 (stereo not given)
- pIC50 (MOLM-13 [1]): 4.08
